This note sets out measurements from PubChem BioAssay (NCI).

The structures appear in SMILES notation.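 Dose response: 5 concentrations. Exposure: 48 h. Format: 96-well plates. Endpoint: linear interpolation; highest concentration if not reached. GI50 is the concentration that inhibits growth by half. TGI is the concentration that stops growth completely.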

This test concerns MDA-MB-468 breast. The test can be described thus: inhibition of tumour cell growth, NCI panel, 48 h.
`Cc1cccc(Cc2cnc(NC(=O)CCc3ccc(C)o3)s2)c1`: the GI50 was 112 nM and the TGI came to 6560 nM.
On to `O=C1OCC2=C1C(c1ccccc1)c1cc3c(cc1N2CCO)OCCO3` (stereo not given), for which the GI50 is 138 nM and the TGI was 959 nM.
The like results for `O=C(CCCCC(=O)N/N=C\c1ccccc1O)N/N=C\c1ccccc1O` were, in that order, 2630 nM and greater than 100000 nM.
For `N#CC1C=Cc2c(ccc3ccccc23)N1C(=O)c1ccccc1` (stereo not given) the same measures were 43.2 nM and 218 nM.
The like results for `CCN(c1cc(C#CCN2CCOCC2)cc(C(=O)NCc2c(C)cc(C)[nH]c2=O)c1C)C1CCC(N(C)CCOC)CC1` (stereo not given) were, in that order, greater than 100000 nM and greater than 100000 nM.
As to `O=c1ccc2nc(-c3ccccn3)nn(-c3ccccc3)c-2c1`, the GI50 is 1440 nM and the TGI came to 3450 nM.
The like results for `C=C1C(=O)O[C@H]2[C@H]1CC/C(COC(=O)NCc1ccc(Cn3c(=O)sn(-c4ccccc4)c3=O)cc1)=C\CC[C@@]1(C)O[C@@H]21` were, in that order, 1170 nM and 2850 nM.
The like results for `COc1ccc(Cn2cc3c(c2-c2cc(OC)c(OC)c(OC)c2)CCc2cnoc2-3)cc1` were, in that order, 171 nM and 622 nM.
For `CCN(CC)c1ccc(/C=C/C=C2\NC(=O)NC2=O)cc1` the same measures were 1820 nM and 7260 nM.
As for `Cc1cc(C(=O)c2ccccc2)c(C)c2c1[nH]c1ccc(Cl)cc12`, the GI50 was 33.9 nM and the TGI turned out to be 1120 nM.
Consider `Oc1ccc(N=Nc2ccccn2)c(O)c1`, for which the GI50 is 681 nM and the TGI is 4650 nM.
The like results for `CCCCCCCCCCCCCCCC1=NC(C)(C)CN1C(C)C` were, in that order, 1320 nM and 2660 nM.
In the case of `CC(=O)c1cc(O)c2ccccc2c1O`, the GI50 was 17500 nM and the TGI was 33400 nM.
For `CCCCCn1c(C)cc(/C=C\c2ccc3cc(C)ccc3[n+]2C)c1C` the same measures were 13.3 nM and 52.3 nM.
Take `CNCCN=c1ccc2c3c1c(O)c1c(O)ccc(=O)c1c3[nH]n2CCNCCO`: the GI50 was 63.4 nM and the TGI turned out to be 435 nM.
`COc1ccc2nc3cc(Cl)ccc3c(NCCNc3c4ccc(Cl)cc4nc4ccc(OC)cc34)c2c1`: the GI50 is 1800 nM and the TGI worked out at 3780 nM.
Turning to `Cc1cc(Nc2cc(N)ncn2)c(=O)n2c1C(=O)NC21CCCCC1`, the GI50 was 94900 nM and the TGI was greater than 100000 nM.
On to `Cn1cc(C2=C(N3CCOCC3)C(=O)NC2=O)c2ccccc21`, for which the GI50 was greater than 25000 nM and the TGI is greater than 25000 nM.
As for `C[C@@H](Nc1nc(Nc2ccc(F)c(Cl)c2)nc2ccccc12)C1CC1`, the GI50 was 1350 nM and the TGI was found to be 3740 nM.
Consider `Cc1c(Cl)cccc1NC(=O)c1sc2nc3c(cc2c1N)CCCCC3`, for which the GI50 is 165 nM and the TGI was 29600 nM.
On to `Cc1ccc(-c2cc(O)c(-c3ccc(C)cc3C)cc2O)c(C)c1`, for which the GI50 was 1750 nM and the TGI amounted to 13500 nM.
The like results for `C[C@@H]1COCCN1c1cc(C2(O)C[C@H]3CC[C@@H](C2)O3)c2cnn(-c3ccn[nH]3)c2n1` (stereo not given in full) were, in that order, 113 nM and 545 nM.
The like results for `COc1cc(-c2csc(NC(=O)Nc3cc(Cl)cc(Cl)c3)n2)cc(OC)c1OC` were, in that order, 1670 nM and 3820 nM.
Turning to `COc1c(B(O)O)cc(F)cc1-c1nc2ccc3[nH]ncc3c2c2c1CCCC2`, the GI50 was 1510 nM and the TGI stood at 4210 nM.
For `COc1ccc2ccc3oc([N+](=O)[O-])cc3c2c1` the same measures were 168 nM and 381 nM.
The like results for `Nc1c(C(=O)Nc2cccc(Cl)c2Cl)sc2nc3c(cc12)C(=O)CCC3` were, in that order, 786 nM and greater than 100000 nM.
For `CC1(C)C(=O)/C(=C\c2cccnc2)C[C@]2(C)[C@H]3CC[C@@H]4[C@@H](C(=O)/C=C/c5ccncc5)CC[C@@]4(C)[C@]3(C)CC[C@@H]12`, the GI50 is 1720 nM and the TGI was 3670 nM.
For `CC(=C/c1ccccc1)/C=C1/NC(=S)N(/C=C2\C(=O)Oc3ccccc3C2=O)C1=O` the same measures were 26900 nM and greater than 100000 nM.
For the molecule `CC(=O)c1nc2ccccc2n1CC(=O)c1cccc(Cl)c1`, the GI50 is 328 nM.
As to `CC(C)(C)c1ccc(NS(=O)(=O)c2ccc3nc(NC(=O)c4cnccn4)[nH]c3c2)cc1`, the GI50 is 712 nM and the TGI was 4270 nM.
For `C=CC(COC(c1ccccc1)(c1ccccc1)c1ccccc1)N(CC)CC` (stereo not given), the GI50 was 2430 nM and the TGI was 6750 nM.
On to `COc1ccc(-c2nn(-c3ccc(NC(=O)Nc4ccc(Cl)c(C(F)(F)F)c4)cc3)cc2-c2ccncc2)cc1Cl`, for which the GI50 was 1180 nM and the TGI came to 3110 nM.
Regarding `CN(C)CCCn1c(-c2nonc2N)nc2cnccc21`, the TGI was greater than 25000 nM.
As for `CC[C@H](C)C(=O)O[C@H]1C[C@H](O)C=C2C=C[C@H](C)[C@H](CC[C@@H](O)C[C@@H](O)CC(=O)O)[C@H]21`, the GI50 is greater than 100000 nM and the TGI was greater than 100000 nM.
In the case of `O=c1oc2c(C(F)(F)F)cccc2cc1-c1csc(Nc2ccc(OCCF)cc2)n1`, the GI50 is 40.1 nM and the TGI is 12400 nM.
For `O=C(NC(=S)Nc1cc(Cl)ccc1O)c1cccc(Br)c1`, the GI50 was 5250 nM and the TGI is greater than 100000 nM.
On to `CC#Cc1nc(Nc2cc(C)[nH]n2)c2ccccc2n1`, for which the GI50 was 2470 nM and the TGI was 6400 nM.
With `Nc1ncc(-c2cccc(S(N)(=O)=O)c2)c2scc(-c3ccc(F)c(Cl)c3)c12`, the GI50 is 5130 nM and the TGI amounted to 15700 nM.
Molecule `CCN(Cc1c(Cl)cccc1Cl)c1ccc(CO)c(Cl)c1` yielded a TGI of 33 nM.
